According to EP1001769B1, “SOLUBLE PRODRUGS OF PACLITAXEL” (BAKER NORTON PHARMACEUTICALS, INC., priority 1997, dated 1998):
Where a name gives a salt, the structure may show the parent alone.

Key:
Format in all cases: physicochemical
[1] = Stability of paclitaxel-2'-MPA solution in water/polyethylene glycol, analysed by HPLC
Method: The onium salt paclitaxel-2'-MPA was prepared by the method of Nicolaou et al., Angew. Chim. Int. Engl., 33:1583-1587 ([…]). A 2.40 mg/ml solution of the paclitaxel-2'-MPA was prepared by dissolving the salt (10.2 mg) in a solution of water (3.024 ml) and polyethylene glycol (1.234 ml). Samples of this solution were frozen. The frozen samples were slowly warmed to room temperature and homogenized with CH3CN (50 µl). An aliquot (50 µl) was removed and diluted to a final volume of 200 µl with deionized H2O and analyzed via HPLC (20 µl injection).

[2] = as above; conditions: freshly prepared solution 0.53 mg/ml in CH3CN, HPLC trace
[3] = Aqueous stability of the prodrug in H2O and 0.2M NaCl
Method: Aqueous Stability: The stability of the prodrug in H2O and 0.2M NaCI was examined at both room temperature and under refrigerated conditions. Samples in H2O (0.54 mg in 2 ml) and NaCI (0.57 mg in 2 ml) at room temperature were examined at two minute time intervals (0 through 12 minutes), 2 hours and 24 hours. […] At 4°C the product concentration was unchanged at 24 and 48 hours but decreased to 90% after 72 hours. […] At 4°C the product concentration was unchanged at 24 hours, was 91% at 48 hours and was 88% at 72 hours.

[4] = Solubility in deionized water; conditions: 0.97 and 0.80 mg in 0.5 ml deionized water, sonicated about 1 minute; 1.54 mg sample needed additional 0.1 ml; upper limit not attained
Method: Solubility: Deionized water (0.5 ml) was added to three samples of the 2'-MPM (1.54 mg, 0.97 mg and 0.80 mg) and the flask sonicated for approximately one (1) minute.

[5] = Extraction from water into CH2Cl2; conditions: about 1 mg in 1 ml water stirred with 1 ml CH2Cl2; residue of organic phase weighed
Method: Extraction: Three samples (1.2, 1.0 and 0.98 mg) were dissolved in water (1 ml) and vigorously stirred with CH2Cl2 (1 ml). The organic phase was transferred to a clean, tared vial and concentrated in vacuo. The residue was weighed and compared to the theoretical input to gauge the effectiveness of the extraction procedure. Average return for this extraction was about 44% of theoretical.

[6] = freshly prepared solution 0.53 mg/ml in CH3CN, HPLC trace

For `CC(=O)O[C@H]1C(=O)[C@@]2(C)[C@H]([C@H](OC(=O)c3ccccc3)[C@]3(O)C[C@H](OC(=O)[C@H](Oc4cccc[n+]4C)[C@@H](NC(=O)c4ccccc4)c4ccccc4)C(C)=C1C3(C)C)[C@]1(OC(C)=O)CO[C@@H]1C[C@@H]2O` [2'-MPA, Paclitaxel 2'-Methylpyridinium Acetate], which “2'-MPA %” value ([1]; 4°C, 1 Hour) is on record?
The value was 85%.

And the Paclita. % ([1]; 4°C, 1 Hour)?
The Paclita. % was 15%.

What about the “2'-MPA %” value ([1]; 4°C, 2 Weeks) of the same compound?
The value was 79%.

And the Paclita. % ([1]; 4°C, 2 Weeks)?
The Paclita. % was 9%.

What about the Unkno. % ([1]; 4°C, 2 Weeks) of the same compound?
The Unkno. % was 10%.

And the “2'-MPA %” value ([1]; 4°C, 6 Hours)?
Its value is 75%.

What about the Paclita. % ([1]; 4°C, 6 Hours) of the same compound?
Its Paclita. % is 11%.

What about the Unkno. % ([1]; 4°C, 6 Hours) of the same compound?
Its Unkno. % is 14%.

And the “2'-MPA %” value ([1]; 4°C, 18 Hours)?
The value was 73%.

And the Paclita. % ([1]; 4°C, 18 Hours)?
Its Paclita. % is 10%.

What about the Unkno. % ([1]; 4°C, 18 Hours) of the same compound?
The Unkno. % was 17%.

And the “2'-MPA %” value ([1]; 4°C, 18 Hours, listed as MPA salt)?
The value was 73%.

What about the “2'-MPA %” value ([1]; 4°C, 42 Hours) of the same compound?
Its value is 79%.

And the Paclita. % ([1]; 4°C, 42 Hours)?
The Paclita. % was 9%.

What about the Unkno. % ([1]; 4°C, 42 Hours) of the same compound?
The Unkno. % was 12%.

What about the “2'-MPA %” value ([1]; 4°C, 66 Hours) of the same compound?
The value was 73%.

What about the Paclita. % ([1]; 4°C, 66 Hours) of the same compound?
Its Paclita. % is 11%.

What about the Unkno. % ([1]; 4°C, 66 Hours) of the same compound?
Its Unkno. % is 16%.

And the “2'-MPA %” value ([1]; Room Temperature, 1 Hour)?
Its value is 78%.

What about the Paclita. % ([1]; Room Temperature, 1 Hour) of the same compound?
Its Paclita. % is 14%.

What about the Unkno. % ([1]; Room Temperature, 1 Hour) of the same compound?
Its Unkno. % is 8%.

And the “2'-MPA %” value ([1]; Room Temperature, 6 Hours)?
Its value is 78%.

And the Paclita. % ([1]; Room Temperature, 6 Hours)?
The Paclita. % was 14%.

What about the Unkno. % ([1]; Room Temperature, 6 Hours) of the same compound?
Its Unkno. % is 8%.

And the “2'-MPA %” value ([1]; Room Temperature, 18 Hours)?
The value was 69%.

And the “2'-MPA %” value ([1]; Room Temperature, 42 Hours)?
The value was 73%.

What about the Paclita. % ([1]; Room Temperature, 42 Hours) of the same compound?
Its Paclita. % is 17%.

What about the Unkno. % ([1]; Room Temperature, 42 Hours) of the same compound?
The Unkno. % was 10%.

What about the “2'-MPA %” value ([1]; Room Temperature, 66 Hours) of the same compound?
Its value is 79%.

What about the Paclita. % ([1]; Room Temperature, 66 Hours) of the same compound?
Its Paclita. % is 13%.

What about the Unkno. % ([1]; Room Temperature, 66 Hours) of the same compound?
Its Unkno. % is 8%.

And the “2'-MPA %” value ([1]; Room Temperature, 90 Hours)?
The value was 73%.

And the Paclita. % ([1]; Room Temperature, 90 Hours)?
The Paclita. % was 15%.

What about the Unkno. % ([1]; Room Temperature, 90 Hours) of the same compound?
Its Unkno. % is 12%.

And the “2'-MPA peak” value [1, 6]?
The value was 75%.

What about the Unknown peak [1, 6] of the same compound?
Its Unknown peak is 10%.

And the Paclitaxel peak [2]?
Its Paclitaxel peak is 15%.

For `CC(=O)O[C@H]1C(=O)[C@@]2(C)[C@H]([C@H](OC(=O)c3ccccc3)[C@]3(O)C[C@H](OC(=O)[C@H](Oc4cccc[n+]4C)[C@@H](NC(=O)c4ccccc4)c4ccccc4)C(C)=C1C3(C)C)[C@]1(OC(C)=O)CO[C@@H]1C[C@@H]2O` [Paclitaxel 2'-MPM, Paclitaxel-2'-Methylpyridinium Mesylate], which product concentration ([3]; H2O, 4°C, 24 hours) is on record?
The product concentration was “unchanged”.

What about the product concentration ([3]; H2O, 4°C, 48 hours) of the same compound?
The product concentration was “unchanged”.

And the product concentration ([3]; H2O, 4°C, 72 hours)?
Its product concentration is 90%.

What about the product concentration ([3]; H2O, room temperature, 2 hours) of the same compound?
The product concentration was “relatively unchanged”.

And the product concentration ([3]; H2O, room temperature, 24 hours)?
The product concentration was 56%.

What about the “stability in aqueous solution” value ([3]; aqueous solution, 4°C, 24 hours (summary of Example 2)) of the same compound?
Its value is “unchanged”.

What about the “stability in aqueous solution, degraded to” value ([3]; aqueous solution, 4°C, 72 hours (summary of Example 2)) of the same compound?
The value was 88-91%.

What about the product concentration ([3]; saline solution (0.2M NaCl), 4°C, 24 hours) of the same compound?
Its product concentration is “unchanged”.

What about the product concentration ([3]; saline solution (0.2M NaCl), 4°C, 48 hours) of the same compound?
Its product concentration is 91%.

And the product concentration ([3]; saline solution (0.2M NaCl), 4°C, 72 hours)?
Its product concentration is 88%.

And the “drop of product concentration” value ([3]; saline solution (0.2M NaCl), room temperature, 2 hours)?
The value was 1-2%.

And the product concentration ([3]; saline solution (0.2M NaCl), room temperature, 24 hours)?
The product concentration was 70%.

And the product concentration ([3]; saline solution (0.2M NaCl), room temperature, first ten minutes)?
Its product concentration is “no apparent change”.

What about the Solubility [4] of the same compound?
The Solubility was “Solution was attained”.

And the “Average return for this extraction” value [5]?
The value was “about 44 % of theoretical”.
